Experimental data: PMC3997621 (The Journal of comparative neurology, 2014)
pEC50: −log10 of the molar value.

Target: T1, InvD1L (invertebrate specific D1-like dopamine receptor) (Ixodes scapularis, UniProt A0ACM8DGL0)
T1 sequence (A0ACM8DGL0 1-457): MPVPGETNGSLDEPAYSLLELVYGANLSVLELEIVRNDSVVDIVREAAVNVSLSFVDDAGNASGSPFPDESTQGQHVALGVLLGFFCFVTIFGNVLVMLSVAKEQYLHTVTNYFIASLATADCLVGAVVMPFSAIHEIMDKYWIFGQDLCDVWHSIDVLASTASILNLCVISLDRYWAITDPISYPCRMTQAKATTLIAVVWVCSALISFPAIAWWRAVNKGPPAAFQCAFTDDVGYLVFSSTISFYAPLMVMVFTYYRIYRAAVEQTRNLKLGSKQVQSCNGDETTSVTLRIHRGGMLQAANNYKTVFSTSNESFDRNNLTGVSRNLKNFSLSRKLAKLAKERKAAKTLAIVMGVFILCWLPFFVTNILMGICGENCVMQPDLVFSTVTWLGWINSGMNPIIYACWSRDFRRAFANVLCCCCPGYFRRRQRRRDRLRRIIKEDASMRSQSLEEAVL
Test: cell-based

## NCCc1ccc(O)c(O)c1 [DA, dopamine]
  pEC50: 5.87
